Reference: patent US12162861B2, “Dopamine D3 receptor selective antagonists/partial agonists; method of making; and use thereof” (THE UNITED STATES OF AMERICA, AS REPRESENTED BY THE …, priority 2016, dated 2024)
pEC50: −log10 of the molar value.

Tests used:
human D2R = target: T1, human D2R (Homo sapiens, UniProt P14416); assay: Radioligand competition binding, [3H]N-methylspiperone, D2R; settings: Table 1A; ratio of Ki values
T1 construct: expressed in transfected cells; host or cells: HEK293
Method: Binding at dopamine D2-like receptors was determined using previously described methods. (Chen et al. “Tranylcypromine substituted cis-hydroxycyclobutylnaphthamides as potent and selective dopamine D(3) receptor antagonists.” J. Med. Chem. 2014, 57, 4962-4968) Membranes were prepared from HEK293 cells expressing human D2R, D3R or D4R, grown in a 50:50 mix of DMEM and Ham's F12 culture media, supplemented with 20 mM HEPES, 2 mM L-glutamine, 0.1 mM non-essential amino acids, 1× antibiotic/antimycotic, 10% heat-inactivated fetal bovine serum, and 200 μg/mL hygromycin (Life Technologies, Grand Island, NY) and kept in an incubator at 37° C. and 5% CO2. Upon reaching 80-90% confluence, cells were harvested using pre-mixed Earle's Balanced Salt Solution (EBSS) with 5 μM EDTA (Life Technologies) and centrifuged at 3000 rpm for 10 min at 21° C. The supernatant was removed and the pellet was resuspended in 10 mL hypotonic lysis buffer (5 mM MgCl2·6H2O, 5 mM Tris, pH 7.4 at 4° C.) and centrifuged at 20,000 rpm for 30 min at 4° C. The pellet was then resuspended in fresh EBSS buffer made from 8.7 g/L Earle's Balanced Salts without phenol red (US Biological, Salem, MA), 2.2 g/L sodium bicarbonate, pH to 7.4. A Bradford protein assay (Bio-Rad, Hercules, CA) was used to determine the protein concentration and membranes were diluted to 500 μg/mL and stored in a −80° C. freezer for later use.
(§1) Radioligand competition binding experiments were conducted using thawed membranes. Test compounds were freshly dissolved in 30% DMSO and 70% H2O to a stock concentration of 100 μM. To assist the solubilization of free-base compounds, 10 μl of glacial acetic acid was added along with the DMSO. Each test compound was then diluted into 13 half-log serial dilutions using 30% DMSO vehicle; final test concentrations ranged from 10 μM to 10 pM. Previously frozen membranes were diluted in fresh EBSS to a 100 μg/mL (for hD2R or hD3R) or 200 μg/mL (hD4R) stock for binding. Radioligand competition experiments were conducted in glass tubes containing 300 μl fresh EBSS buffer with 0.2 mM sodium metabisulfite, 50 μl of diluted test compound, 100 μl of membranes (10 μg total protein for hD2R or hD3R, 20 μg total protein for hD4R), and 50 μl of [^3H]N-methylspiperone (0.4 nM final concentration; Perkin Elmer). Nonspecific binding was determined using 10 μM butaclamol (Sigma-Aldrich, St. Louis, MO) and total binding was determined with 30% DMSO vehicle. All compound dilutions were tested in triplicate and the reaction incubated for one hour at room temperature. The reaction was terminated by filtration through Whatman GF/B filters, presoaked for one hour in 0.5% polyethylenimine, using a Brandel R48 filtering manifold (Brandel Instruments, Gaithersburg, MD). The filters were washed 3 times with 3 mL of ice cold EBSS buffer and transferred to scintillation vials. 3 mL CytoScint liquid scintillation cocktail (MP Biomedicals, Solon, OH) was added and vials were counted using a Perkin Elmer Tri-Carb 2910 TR liquid scintillation counter (Waltham, MA). IC50 values for each compound were determined from dose-response curves and Ki values were calculated using the Cheng-Prusoff equation; these analyses were performed using GraphPad Prism version 5.00 for Windows (GraphPad Software, San Diego, CA). Reported Ki values were determined from least three independent experiments.

human D3R = target: T2, human D3R (Homo sapiens, UniProt P35462); assay: Radioligand competition binding, [3H]N-methylspiperone, D3R; settings: Table 1A; for D4/D3: ratio of Ki values; for D3R K ± SEM (nM): HEK 293 cells transfected with hD3R, [3H]N-methylspiperone
T2 construct: expressed in transfected cells; host or cells: HEK293
T2 sequence (P35462 whole entry): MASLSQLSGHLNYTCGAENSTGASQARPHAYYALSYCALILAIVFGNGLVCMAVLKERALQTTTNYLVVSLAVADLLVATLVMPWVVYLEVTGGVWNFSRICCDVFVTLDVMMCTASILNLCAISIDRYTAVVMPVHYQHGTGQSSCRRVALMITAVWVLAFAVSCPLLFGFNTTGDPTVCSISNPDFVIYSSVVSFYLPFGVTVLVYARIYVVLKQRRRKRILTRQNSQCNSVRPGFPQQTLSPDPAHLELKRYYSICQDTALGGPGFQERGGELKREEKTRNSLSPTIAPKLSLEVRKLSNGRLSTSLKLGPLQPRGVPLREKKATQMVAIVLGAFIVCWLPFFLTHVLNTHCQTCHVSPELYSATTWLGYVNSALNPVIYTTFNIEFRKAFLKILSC
Method: Binding at dopamine D2-like receptors was determined using previously described methods. […] Upon reaching 80-90% confluence, cells were harvested using pre-mixed Earle's Balanced Salt Solution (EBSS) with 5 μM EDTA (Life Technologies) and centrifuged at 3000 rpm for 10 min at 21° C. The supernatant was removed and the pellet was resuspended in 10 mL hypotonic lysis buffer (5 mM MgCl2·6H2O, 5 mM Tris, pH 7.4 at 4° C.) and centrifuged at 20,000 rpm for 30 min at 4° C. The pellet was then resuspended in fresh EBSS buffer made from 8.7 g/L Earle's Balanced Salts without phenol red (US Biological, Salem, MA), 2.2 g/L sodium bicarbonate, pH to 7.4. A Bradford protein assay (Bio-Rad, Hercules, CA) was used to determine the protein concentration and membranes were diluted to 500 μg/mL and stored in a −80° C. freezer for later use.
as §1, with “3 mL CytoScint liquid scintillation cocktail (MP Biomedicals, Solon, OH) was added and vials were counted using a Perkin Elmer Tri-Carb 2910 TR liquid scintillation counter (Waltham, MA).” left out

human dopamine D3R = target: T3, human dopamine D3R (Homo sapiens, UniProt P35462); assay: D3R mitogenesis assay in CHO cells; type: cell-based; settings: stimulation of mitogenesis, CHO cells with human D3R; read-out: Agonist EC50 ± SEM
T3 construct: expressed in transfected cells; host or cells: CHO
T3 sequence (P35462 whole entry): as above

[1] = Sucrose self-administration; type: in vivo; settings: pretreatment (±)-29 15 and 25 mg/kg, (±)-19 1 and 5 mg/kg

T1 sequence (P14416 whole entry): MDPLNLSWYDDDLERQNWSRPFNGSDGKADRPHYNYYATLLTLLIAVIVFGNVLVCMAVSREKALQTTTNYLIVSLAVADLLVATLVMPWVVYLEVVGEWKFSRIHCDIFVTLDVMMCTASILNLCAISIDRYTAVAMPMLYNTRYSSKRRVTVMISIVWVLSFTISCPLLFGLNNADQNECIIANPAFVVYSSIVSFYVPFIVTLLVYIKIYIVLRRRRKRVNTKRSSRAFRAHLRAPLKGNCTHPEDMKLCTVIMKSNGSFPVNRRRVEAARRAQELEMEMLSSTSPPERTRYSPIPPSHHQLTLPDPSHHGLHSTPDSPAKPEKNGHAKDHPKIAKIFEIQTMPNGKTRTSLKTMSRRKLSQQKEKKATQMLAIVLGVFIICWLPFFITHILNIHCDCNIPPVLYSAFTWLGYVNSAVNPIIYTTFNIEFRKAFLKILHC

| Structure (SMILES) | D4/D2 (human D2R) | D4/D3 (human D3R) | pEC50 (human dopamine D3R) | D3R K ± SEM (nM) (human D3R) | sucrose self-administration [1] |
| --- | --- | --- | --- | --- | --- |
| CCc1cc(Cl)c(OC)c(N2CCN(CCCCNC(=O)c3cc4ccccc4[nH]3)CC2)c1 [Compound 28, N-(4-(4-(3-Chloro-5-ethyl-2-methoxyphenyl)piperazin-1-yl)butyl)-1H-indole-2-carboxamide] | 38 | 3065 | < 5.08 | – | – |
| CCc1cccc(N2CCN(C/C=C/CNC(=O)c3nc(C)c[nH]3)CC2)c1Cl [Compound 35, (E)-N-(4-(4-(2-Chloro-3-ethylphenyl)piperazin-1-yl)but-2-en-1-yl)-4-methyl-1H-imidazole-2-carboxamide] | 31.2 | 393 | – | – | – |
| CCc1cc(Cl)c(OC)c(N2CCN(CC(O)CCNC(=O)c3cc4ccccc4o3)CC2)c1 (stereo not drawn) [Compound 31, N-(4-(4-(3-Chloro-5-ethyl-2-methoxyphenyl)piperazin-1-yl)-3-hydroxybutyl)benzofuran-2-carboxamide] | 3.3 | 146 | – | – | – |
| CCc1cc(Cl)c(OC)c(N2CCN(CCCCNC(=O)c3cc4ccccc4o3)CC2)c1 [Compound 30, N-(4-(4-(3-Chloro-5-ethyl-2-methoxyphenyl)piperazin-1-yl)butyl)benzofuran-2-carboxamide] | 5.2 | 224 | < 5.18 | – | – |
| CCc1cccc(N2CCN(CCCCNC(=O)c3cc4ccccc4o3)CC2)c1Cl [Compound 20, N-(4-(4-(2-Chloro-3-ethylphenyl)piperazin-1-yl)butyl)benzofuran-2-carboxamide] | 56 | 2327 | – | subnanomolar binding affinities | – |
| CCc1cccc(N2CCN(CCC(O)CNC(=O)c3cc4ccccc4[nH]3)CC2)c1Cl (stereo not drawn) [Compound 40, N-(4-(4-(2-Chloro-3-ethylphenyl)piperazin-1-yl)-2-hydroxybutyl)-1H-indole-2-carboxamide] | 44.7 | 1525 | – | – | – |
| CCc1cccc(N2CCN(CCCCNC(=O)c3nc(C)c[nH]3)CC2)c1Cl [Compound 26, N-(4-(4-(2-Chloro-3-ethylphenyl)piperazin-1-yl)butyl)-4-methyl-1H-imidazole-2-carboxamide] | 43.4 | 853 | – | – | – |
| CCc1cccc(N2CCN(CC(O)CCNC(=O)c3cc4ccccc4[nH]3)CC2)c1Cl (racemic) [Compound 19, N-(4-(4-(2-chloro-3-ethylphenyl)piperazin-1-yl)-3-hydroxybutyl)-1H-indole-2-carboxamide] | – | – | – | – | no significant effects on sucrose self-administration |
| CCc1cccc(N2CCN(CC(O)CCNC(=O)c3cc4ccccc4o3)CC2)c1Cl (stereo not drawn) [Compound 21, N-(4-(4-(2-Chloro-3-ethylphenyl)piperazin-1-yl)-3-hydroxybutyl)benzofuran-2-carboxamide] | 15 | 2417 | – | subnanomolar binding affinities | – |
| CCc1c[nH]c(C(=O)NCCCCN2CCN(c3cccc(CC)c3Cl)CC2)n1 [Compound 25, N-(4-(4-(2-Chloro-3-ethylphenyl)piperazin-1-yl)butyl)-4-ethyl-1H-imidazole-2-carboxamide] | 40.0 | 439 | – | – | – |
| CCc1cccc(N2CCN(CC(O)CCNC(=O)c3nc(C)c[nH]3)CC2)c1Cl (stereo not drawn) [Compound 27, N-(4-(4-(2-Chloro-3-ethylphenyl)piperazin-1-yl)-3-hydroxybutyl)-4-methyl-1H-imidazole-2-carboxamide] | 13.1 | 175 | – | – | – |
| CCc1cccc(N2CCN(CCCCNC(=O)c3cc4ccccc4[nH]3)CC2)c1Cl [Compound 18, N-(4-(4-(2-Chloro-3-ethylphenyl)piperazin-1-yl)butyl)-1H-indole-2-carboxamide] | 61 | 2352 | – | – | – |
| CCc1cccc(N2CCN(CCCCNC(=O)c3c(C)nc4sccn34)CC2)c1Cl [Compound 24, N-(4-(4-(2-chloro-3-ethylphenyl)piperazin-1-yl)butyl)-6-methylimidazo[2,1-b]thiazole-5-carboxamide] | 30.8 | 152 | – | – | – |
| CCc1cccc(N2CCN(CCCCNC(=O)c3cn4ccccc4n3)CC2)c1Cl [Compound 22, N-(4-(4-(2-chloro-3-ethylphenyl)piperazin-1-yl)butyl)imidazo[1,2-a]pyridine-2-carboxamide] | 145.2 | 2482 | – | – | – |
| CCc1cccc(N2CCN(CC(O)CCNC(=O)c3cn4ccccc4n3)CC2)c1Cl (stereo not drawn) [Compound 23, N-(4-(4-(2-Chloro-3-ethylphenyl)piperazin-1-yl)-3-hydroxybutyl)imidazo[1,2-a]pyridine-2-carboxamide] | 58.5 | 2671 | – | – | – |
